According to ChEMBL document CHEMBL4421723, “Novel drug targets to overcome de novo drug-resistance in multiple myeloma” (2013):
Calls of active or inactive are those of the source. No cut-off for these calls is given here.

Key:
[1] = tested on: RPMI-8226; assay: Induction of apoptosis in human RPMI8226 cells assessed as increase in cleaved caspase-3 levels at 25 uM incubated for 20 hrs; assay type: functional, cell-based
[2] = tested on: U-266; assay: Induction of apoptosis in human U266 cells assessed as increase in cleaved caspase-3 levels at 25 uM incubated for 20 hrs; assay type: functional, cell-based
[3] = biological target: DNA topoisomerase 2-alpha (Homo sapiens) (UniProt P11388); assay: Binding affinity to nuclear export signal of topoisomerase 2alpha in human NCI-H929 cells assessed as potentiation of doxorubicin-induced apoptosis by measuring increase in cleaved caspase-3 levels at 25 uM pre-incubated for 20 hrs followed by addition of doxorubicin for 4 hrs; assay type: cell-based
Sequence of DNA topoisomerase 2-alpha (Homo sapiens) (P11388 whole entry): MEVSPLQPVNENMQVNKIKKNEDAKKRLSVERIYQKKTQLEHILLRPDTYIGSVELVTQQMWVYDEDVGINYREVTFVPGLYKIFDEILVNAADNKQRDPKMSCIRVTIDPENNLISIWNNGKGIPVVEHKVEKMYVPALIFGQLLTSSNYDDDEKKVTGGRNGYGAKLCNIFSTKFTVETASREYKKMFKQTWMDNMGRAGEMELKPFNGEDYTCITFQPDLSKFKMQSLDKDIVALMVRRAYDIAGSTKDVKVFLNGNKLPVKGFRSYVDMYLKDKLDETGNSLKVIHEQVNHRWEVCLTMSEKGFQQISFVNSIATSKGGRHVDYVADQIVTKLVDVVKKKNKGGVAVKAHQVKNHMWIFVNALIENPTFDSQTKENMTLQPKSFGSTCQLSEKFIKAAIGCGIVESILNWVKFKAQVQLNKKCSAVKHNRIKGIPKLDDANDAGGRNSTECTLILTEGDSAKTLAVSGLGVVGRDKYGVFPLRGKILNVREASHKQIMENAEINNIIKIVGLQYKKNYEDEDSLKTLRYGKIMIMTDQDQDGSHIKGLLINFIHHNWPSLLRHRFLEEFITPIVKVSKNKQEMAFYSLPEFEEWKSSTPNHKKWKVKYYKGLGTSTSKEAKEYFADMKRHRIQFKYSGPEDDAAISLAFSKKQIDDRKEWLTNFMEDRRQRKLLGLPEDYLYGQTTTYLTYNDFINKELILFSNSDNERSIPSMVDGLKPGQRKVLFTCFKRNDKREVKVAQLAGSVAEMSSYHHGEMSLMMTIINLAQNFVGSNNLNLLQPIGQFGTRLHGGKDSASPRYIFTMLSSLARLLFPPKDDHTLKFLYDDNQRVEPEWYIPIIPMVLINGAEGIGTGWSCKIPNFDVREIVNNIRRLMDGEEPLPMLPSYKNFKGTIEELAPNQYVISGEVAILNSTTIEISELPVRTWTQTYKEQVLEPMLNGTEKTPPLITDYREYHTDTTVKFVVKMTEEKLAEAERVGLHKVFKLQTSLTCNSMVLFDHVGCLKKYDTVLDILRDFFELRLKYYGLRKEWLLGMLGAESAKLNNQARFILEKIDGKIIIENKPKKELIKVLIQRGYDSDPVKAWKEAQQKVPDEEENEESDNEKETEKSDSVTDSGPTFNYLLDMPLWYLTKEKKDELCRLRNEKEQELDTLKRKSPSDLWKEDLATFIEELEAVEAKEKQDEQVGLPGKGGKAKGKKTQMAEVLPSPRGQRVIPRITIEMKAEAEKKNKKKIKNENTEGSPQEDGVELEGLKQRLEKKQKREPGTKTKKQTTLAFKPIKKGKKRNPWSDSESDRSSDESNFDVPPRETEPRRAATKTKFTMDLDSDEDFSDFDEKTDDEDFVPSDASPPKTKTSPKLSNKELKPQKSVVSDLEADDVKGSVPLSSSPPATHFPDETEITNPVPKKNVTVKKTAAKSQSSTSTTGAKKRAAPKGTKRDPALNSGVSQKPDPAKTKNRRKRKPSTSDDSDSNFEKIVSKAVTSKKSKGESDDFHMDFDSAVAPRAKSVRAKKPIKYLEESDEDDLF

[4] = tested on: NCI-H929; assay: Induction of apoptosis in human NCI-H929 cells assessed as increase in cleaved caspase-3 levels at 25 uM incubated for 20 hrs; assay type: functional, cell-based
[5] = biological target: DNA topoisomerase 2-alpha (Homo sapiens) (UniProt P11388); assay: Binding affinity to nuclear export signal of topoisomerase 2alpha in human U266 cells assessed as potentiation of doxorubicin-induced apoptosis by measuring increase in cleaved caspase-3 levels at 25 uM pre-incubated for 20 hrs followed by addition of doxorubicin for 4 hrs; assay type: cell-based
[6] = biological target: DNA topoisomerase 2-alpha (Homo sapiens) (UniProt P11388); assay: Binding affinity to nuclear export signal of topoisomerase 2alpha in human RPMI8226 cells assessed as potentiation of doxorubicin-induced apoptosis by measuring increase in cleaved caspase-3 levels at 25 uM pre-incubated for 20 hrs followed by addition of doxorubicin for 4 hrs; assay type: cell-based
[7] = biological target: DNA topoisomerase 2-alpha (Homo sapiens) (UniProt P11388); assay: Inhibition of nuclear export signal of topoisomerase 2alpha in human NCI-H929 cells assessed as increase in nuclear localization of Top2alpha at 50 uM incubated for 2 hrs by Western blot analysis; assay type: cell-based
[8] = biological target: DNA topoisomerase 2-alpha (Homo sapiens) (UniProt P11388); assay: Binding affinity to nuclear export signal of topoisomerase 2alpha in human PBMC cells assessed as potentiation of doxorubicin-induced apoptosis by measuring increase in cleaved caspase-3 levels at 25 uM pre-incubated for 20 hrs followed by addition of doxorubicin for 4 hrs; assay type: cell-based
[9] = tested on: RPMI-8226; assay: Effect on Top2alpha protein levels in human RPMI8226 cells at 25 uM incubated for 20 hrs by Western blot analysis; assay type: cell-based; details: rpmi-8226, 20 h
[10] = biological target: DNA topoisomerase 2-alpha (Homo sapiens) (UniProt P11388); assay: Binding affinity to nuclear export signal of topoisomerase 2alpha in human HL60 cells assessed as potentiation of doxorubicin-induced apoptosis by measuring increase in cleaved caspase-3 levels at 25 uM pre-incubated for 20 hrs followed by addition of doxorubicin for 4 hrs; assay type: cell-based
[11] = biological target: Cellular tumor antigen p53 (Homo sapiens) (UniProt P04637); assay: Inhibition of p53 nuclear export in human NCI-H929 cells at 25 uM incubated for 20 hrs by Western blot analysis; assay type: cell-based
Sequence of Cellular tumor antigen p53 (Homo sapiens) (P04637 whole entry, looked up): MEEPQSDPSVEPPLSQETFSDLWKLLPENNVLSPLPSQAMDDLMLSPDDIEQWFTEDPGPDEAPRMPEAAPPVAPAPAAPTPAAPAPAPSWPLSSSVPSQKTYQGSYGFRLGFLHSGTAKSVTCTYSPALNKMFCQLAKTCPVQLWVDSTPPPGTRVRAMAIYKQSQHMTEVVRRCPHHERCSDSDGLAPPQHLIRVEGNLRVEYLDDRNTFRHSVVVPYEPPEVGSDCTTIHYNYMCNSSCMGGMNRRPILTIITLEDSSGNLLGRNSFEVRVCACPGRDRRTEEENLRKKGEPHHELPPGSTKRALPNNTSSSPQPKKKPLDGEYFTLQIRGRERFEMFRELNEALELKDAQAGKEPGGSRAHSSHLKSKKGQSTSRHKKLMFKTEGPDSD

[12] = biological target: DNA topoisomerase 2-alpha (Homo sapiens) (UniProt P11388); assay: Binding affinity to nuclear export signal of topoisomerase 2alpha in human KG1a cells assessed as potentiation of doxorubicin-induced apoptosis by measuring increase in cleaved caspase-3 levels at 25 uM pre-incubated for 20 hrs followed by addition of doxorubicin for 4 hrs; assay type: cell-based
[13] = biological target: DNA topoisomerase 2-alpha (Homo sapiens) (UniProt P11388); assay: Inhibition of nuclear export signal of topoisomerase 2alpha in human NCI-H929 cells assessed as reduction in Top2alpha binding to CRM1 at 25 uM incubated for 20 hrs by Western blot analysis and co-immunoprecipitation analysis; assay type: cell-based
[14] = biological target: DNA topoisomerase 2-alpha (Homo sapiens) (UniProt P11388); assay: Binding affinity to nuclear export signal of topoisomerase 2alpha in human Flow 2000 cells assessed as potentiation of doxorubicin-induced apoptosis by measuring increase in cleaved caspase-3 levels at 25 uM pre-incubated for 20 hrs followed by addition of doxorubicin for 4 hrs; assay type: cell-based
[15] = biological target: DNA topoisomerase 2-alpha (Homo sapiens) (UniProt P11388); assay: Inhibition of nuclear export signal of topoisomerase 2alpha in human NCI-H929 cells assessed as reduction in cytoplasmic localization of Top2alpha at 100 uM incubated for 24 hrs by Western blot analysis; assay type: cell-based
[16] = biological target: DNA topoisomerase 2-alpha (Homo sapiens) (UniProt P11388); assay: Binding affinity to nuclear export signal of topoisomerase 2alpha in human MCF7 cells assessed as potentiation of doxorubicin-induced apoptosis by measuring increase in cleaved caspase-3 levels at 25 uM pre-incubated for 20 hrs followed by addition of doxorubicin for 4 hrs; assay type: cell-based
[17] = biological target: DNA topoisomerase II (Homo sapiens) (UniProt P11388+Q02880); assay: Inhibition of decatenation activity of human topoisomerase 2 using kinetoplast DNA up to 50 uM incubated for 30 mins by agarose gel electrophoresis; assay type: protein assay
[18] = biological target: DNA topoisomerase 2-alpha (Homo sapiens) (UniProt P11388); assay: Binding affinity to nuclear export signal of topoisomerase 2alpha in human WI38 cells assessed as potentiation of doxorubicin-induced apoptosis by measuring increase in cleaved caspase-3 levels at 25 uM pre-incubated for 20 hrs followed by addition of doxorubicin for 4 hrs; assay type: cell-based
[19] = biological target: Exportin-1 (Homo sapiens) (UniProt O14980); assay: Inhibition of CRM1 in human NCI-H929 cells assessed as increase in nuclear localization of Top2alpha at 50 uM incubated for 2 hrs by Western blot analysis; assay type: cell-based
Sequence of Exportin-1 (Homo sapiens) (O14980 whole entry): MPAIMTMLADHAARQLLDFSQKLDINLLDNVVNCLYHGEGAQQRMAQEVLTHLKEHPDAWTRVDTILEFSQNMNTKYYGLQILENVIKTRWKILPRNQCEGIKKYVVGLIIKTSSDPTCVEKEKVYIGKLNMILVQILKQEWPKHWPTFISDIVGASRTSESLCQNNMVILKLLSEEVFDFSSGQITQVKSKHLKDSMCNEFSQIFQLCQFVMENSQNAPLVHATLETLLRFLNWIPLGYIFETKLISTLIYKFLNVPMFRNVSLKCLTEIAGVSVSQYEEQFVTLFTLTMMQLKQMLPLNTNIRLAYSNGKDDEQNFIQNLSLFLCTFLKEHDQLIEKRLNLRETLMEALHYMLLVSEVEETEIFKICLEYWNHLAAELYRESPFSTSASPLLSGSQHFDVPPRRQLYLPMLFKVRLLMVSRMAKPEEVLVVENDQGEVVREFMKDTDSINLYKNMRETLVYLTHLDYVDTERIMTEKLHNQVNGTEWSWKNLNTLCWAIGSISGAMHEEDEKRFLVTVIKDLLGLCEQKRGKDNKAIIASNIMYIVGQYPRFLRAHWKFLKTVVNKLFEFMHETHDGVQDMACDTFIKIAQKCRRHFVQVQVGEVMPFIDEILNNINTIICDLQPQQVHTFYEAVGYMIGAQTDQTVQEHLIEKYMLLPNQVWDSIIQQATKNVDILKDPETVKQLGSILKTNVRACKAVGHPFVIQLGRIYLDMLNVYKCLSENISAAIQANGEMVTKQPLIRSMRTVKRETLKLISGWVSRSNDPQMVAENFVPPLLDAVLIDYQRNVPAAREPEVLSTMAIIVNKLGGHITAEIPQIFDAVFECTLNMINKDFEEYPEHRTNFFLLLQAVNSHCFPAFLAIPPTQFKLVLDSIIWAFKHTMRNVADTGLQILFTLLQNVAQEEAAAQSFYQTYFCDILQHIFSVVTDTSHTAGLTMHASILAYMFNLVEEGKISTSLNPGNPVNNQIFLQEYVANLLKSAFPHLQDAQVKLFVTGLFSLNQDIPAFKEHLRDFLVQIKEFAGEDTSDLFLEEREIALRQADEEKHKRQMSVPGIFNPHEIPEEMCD

Compound	Activity [3]	Activity [5]	Activity [6]	inhibition [15]	Activity [1]	Activity [2]	Activity [4]	inhibition [7]	inhibition [8]	Activity [9]	inhibition [10]	inhibition [11]	inhibition [12]	inhibition [13]	inhibition [14]	inhibition [16]	inhibition [17]	inhibition [18]	inhibition [19]
c1ccc(C2NNC(c3ccccc3)NN2)cc1 (stereo unspecified)	Active	Active	Active	–	inactive	inactive	inactive	–	–	–	–	–	–	–	–	–	–	–	–
O=C1c2ccccc2C(=O)C1C(=O)C(c1ccccc1)c1ccccc1 [DIPHENADIONE]	Active	Active	Active	Active	inactive	inactive	inactive	Active	inactive	Non-Toxic	inactive	inactive	inactive	Active	inactive	Active	inactive	inactive	–
C/C=C/[C@@H]1O[C@H]([C@H](O)/C=C/C=C/C[C@@H](C)/C=C(\C=C\[C@H]2CC=CC(=O)O2)CC)C[C@@H](O)[C@@H]1C	–	–	–	–	–	–	–	–	–	–	–	–	–	–	–	–	–	–	Active
Brc1ccc(C[N+]23CN4CN(CN(C4)C2)C3)cc1	Active	Active	Active	Active	inactive	inactive	inactive	–	inactive	Non-Toxic	inactive	Active	inactive	–	inactive	Active	inactive	inactive	–

Further lines, with some results ahead:

Activity [3]	Activity [5]	Activity [6]	inhibition [15]	Compound	Activity [1]	Activity [2]	Activity [4]	inhibition [7]	inhibition [8]	Activity [9]	inhibition [10]	inhibition [11]	inhibition [12]	inhibition [13]	inhibition [14]	inhibition [16]	inhibition [17]	inhibition [18]	inhibition [19]
Active	Active	Active	–	COCN1CCC2N(COC)CCC3N(COC)CCC1N23 (stereo unspecified)	inactive	inactive	inactive	–	–	–	–	–	–	–	–	–	–	–	–
–	–	–	inactive	O=C(C[N+]12CN3CN(CN(C3)C1)C2)c1ccc(Br)cc1	–	–	–	–	–	–	–	–	–	–	–	–	–	–	–
Active	Active	Active	inactive	Clc1cc(Cl)c(C[N+]23CN4CN(CN(C4)C2)C3)cc1Cl	inactive	inactive	inactive	–	inactive	Non-Toxic	inactive	inactive	inactive	–	inactive	Active	inactive	inactive	–
Active	Active	Active	–	C1CN2C(=N1)N1CCN=C1N1CCN=C21	inactive	inactive	inactive	–	–	–	–	–	–	–	–	–	–	–	–
Active	Active	Active	Active	O=C(Nc1ccc(C2=NCCN2)cc1)c1ccc(C(=O)Nc2ccc(C3=NCCN3)cc2)c([N+](=O)[O-])c1	inactive	inactive	inactive	–	inactive	Non-Toxic	inactive	inactive	inactive	–	inactive	Active	inactive	inactive	–
